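The compound was tested at five concentrations on cells cultured in 96-well plates, with a 48-hour exposure period. Abbreviation: GI50, concentration required for 50% inhibition of growth.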 Activity calls are given as the source filed them. No stated cut-off is given here; in the data, active = GI50 up to about 1.1 µM and inactive = higher.
Legend:
Assay in all cases: NCI tumour cell line growth inhibition, 48 h
HT-29 = test system: HT-29
EKVX = test system: EKVX
TK-10 = test system: TK-10
NCI-H460 = test system: NCI-H460
HOP-62 = test system: HOP-62
786-0 = test system: 786-0
COLO 205 = test system: COLO 205
A549 = test system: A549
KM12 = test system: KM12
HOP-92 = test system: HOP-92
OVCAR-5 = test system: OVCAR-5
MDA-MB-435 = test system: MDA-MB-435
LOX IMVI = test system: LOX IMVI
MCF7 = test system: MCF7
RPMI-8226 = test system: RPMI-8226
SNB-19 = test system: SNB-19
UACC-62 = test system: UACC-62
SK-MEL-28 = test system: SK-MEL-28
SK-MEL-2 = test system: SK-MEL-2
SF-539 = test system: SF-539
CAKI-1 = test system: CAKI-1
DU-145 = test system: DU-145
PC-3 = test system: PC-3
CCRF-CEM = test system: CCRF-CEM
T47D = test system: T47D
UO-31 = test system: UO-31
U-251 = test system: U-251
MOLT-4 = test system: MOLT-4
SK-MEL-5 = test system: SK-MEL-5
MDA-N = test system: MDA-N
RXF 393 = test system: RXF 393
SW-620 = test system: SW-620
M14 = test system: M14
K562 = test system: K562
NCI/ADR-RES = test system: NCI/ADR-RES
MDA-MB-231 = test system: MDA-MB-231
SNB-75 = test system: SNB-75
BT-549 = test system: BT-549
SR = test system: SR
ACHN = test system: ACHN
NCI-H522 = test system: NCI-H522
SK-OV-3 = test system: SK-OV-3
HCT-15 = test system: HCT-15
HCC 2998 = test system: HCC 2998
OVCAR-8 = test system: OVCAR-8
NCI-H23 = test system: NCI-H23
SN12C = test system: SN12C
HL-60 = test system: HL-60
Malme-3M = test system: Malme-3M
SF-295 = test system: SF-295
SF-268 = test system: SF-268
OVCAR-3 = test system: OVCAR-3
OVCAR-4 = test system: OVCAR-4
HCT-116 = test system: HCT-116
UACC-257 = test system: UACC-257
Hs-578T = test system: Hs-578T
NCI-H226 = test system: NCI-H226
IGROV-1 = test system: IGROV-1
A498 = test system: A498

With `CCOC(=O)[C@@H](Cc1ccc(CCl)cc1)NC(C)=O` the GI50 (HT-29) was 75.3 µM (inactive), the GI50 (EKVX) was 22.2 µM (inactive) and the GI50 (TK-10) was 4.71 µM (inactive). For the same compound, the GI50 (NCI-H460) was 19 µM (inactive), the GI50 (HOP-62) was 23.9 µM (inactive) and the GI50 (786-0) was 19.1 µM (inactive). For the same compound, the GI50 (COLO 205) was 18.1 µM (inactive), the GI50 (A549) was 97.1 µM (inactive) and the GI50 (KM12) was 20.2 µM (inactive). For the same compound, the GI50 (HOP-92) was 23.4 µM (inactive), the GI50 (OVCAR-5) was 20.6 µM (inactive) and the GI50 (MDA-MB-435) was 19.9 µM (inactive). For the same compound, the GI50 (LOX IMVI) was 19 µM (inactive), the GI50 (MCF7) was 26.1 µM (inactive) and the GI50 (RPMI-8226) was 22.6 µM (inactive). For the same compound, the GI50 (SNB-19) was 27.2 µM (inactive), the GI50 (UACC-62) was 15.9 µM (inactive) and the GI50 (SK-MEL-28) was 27.5 µM (inactive). For the same compound, the GI50 (SK-MEL-2) was 17.1 µM (inactive), the GI50 (SF-539) was 18.3 µM (inactive) and the GI50 (CAKI-1) was 25.6 µM (inactive). The GI50 (DU-145) was 38.1 µM (inactive), the GI50 (PC-3) was 29 µM (inactive) and the GI50 (CCRF-CEM) was 26.7 µM (inactive). For the same compound, the GI50 (T47D) was 26.3 µM (inactive), the GI50 (UO-31) was 19.2 µM (inactive) and the GI50 (U-251) was 19.6 µM (inactive). For the same compound, the GI50 (MOLT-4) was 29.2 µM (inactive), the GI50 (SK-MEL-5) was 16 µM (inactive) and the GI50 (MDA-N) was 19 µM (inactive). The GI50 (RXF 393) was 14 µM (inactive), the GI50 (SW-620) was 31 µM (inactive) and the GI50 (M14) was 24.8 µM (inactive). For the same compound, the GI50 (K562) was 34.4 µM (inactive), the GI50 (NCI/ADR-RES) was 19.9 µM (inactive) and the GI50 (MDA-MB-231) was 27.1 µM (inactive). For the same compound, the GI50 (SNB-75) was 26.6 µM (inactive), the GI50 (BT-549) was 31.1 µM (inactive) and the GI50 (SR) was 29.4 µM (inactive). The GI50 (ACHN) was 20.5 µM (inactive), the GI50 (NCI-H522) was 17.6 µM (inactive) and the GI50 (SK-OV-3) was 98.2 µM (inactive). For the same compound, the GI50 (HCT-15) was 27.4 µM, the GI50 (HCC 2998) was 17.7 µM (inactive) and the GI50 (OVCAR-8) was 50.8 µM (inactive). For the same compound, the GI50 (NCI-H23) was 25 µM (inactive), the GI50 (SN12C) was 24 µM (inactive) and the GI50 (HL-60) was 27 µM (inactive). The GI50 (Malme-3M) was 19.2 µM (inactive), the GI50 (SF-295) was 32.8 µM (inactive) and the GI50 (SF-268) was 24 µM (inactive). The GI50 (OVCAR-3) was 30.1 µM (inactive), the GI50 (OVCAR-4) was 19.9 µM (inactive) and the GI50 (HCT-116) was 30.3 µM (inactive). For the same compound, the GI50 (UACC-257) was 17.2 µM (inactive), the GI50 (Hs-578T) was 25.5 µM (inactive) and the GI50 (NCI-H226) was 28.1 µM (inactive). For the same compound, the GI50 (IGROV-1) was 23.7 µM (inactive).

In the case of `C[N+]1(C)[C@@H]2CC[C@H]1C[C@@H](OC(=O)C(CO)c1ccccc1)C2` (stereo partly drawn) [ATROPINE METHYLBROMIDE], the GI50 (HT-29) is reported as > 100 µM (inactive), the GI50 (EKVX) is reported as > 100 µM (inactive) and the GI50 (TK-10) is reported as > 100 µM (inactive). For the same compound, the GI50 (HOP-62) was > 100 µM (inactive), the GI50 (786-0) was > 100 µM (inactive) and the GI50 (COLO 205) was > 100 µM (inactive). The GI50 (A549) was > 100 µM (inactive), the GI50 (KM12) was > 100 µM (inactive) and the GI50 (OVCAR-5) was > 100 µM (inactive). For the same compound, the GI50 (MDA-MB-435) was > 100 µM (inactive), the GI50 (LOX IMVI) was > 100 µM (inactive) and the GI50 (A498) was > 100 µM (inactive). The GI50 (MCF7) was > 100 µM (inactive), the GI50 (RPMI-8226) was > 100 µM (inactive) and the GI50 (SNB-19) was > 100 µM (inactive). For the same compound, the GI50 (UACC-62) was > 100 µM (inactive), the GI50 (SK-MEL-28) was > 100 µM (inactive) and the GI50 (SK-MEL-2) was > 100 µM (inactive). For the same compound, the GI50 (SF-539) was > 100 µM (inactive), the GI50 (CAKI-1) was > 100 µM (inactive) and the GI50 (DU-145) was > 100 µM (inactive). The GI50 (PC-3) was > 100 µM (inactive), the GI50 (CCRF-CEM) was > 100 µM (inactive) and the GI50 (T47D) was > 100 µM (inactive). For the same compound, the GI50 (UO-31) was > 100 µM (inactive), the GI50 (U-251) was > 100 µM (inactive) and the GI50 (MOLT-4) was > 100 µM (inactive). The GI50 (SK-MEL-5) was > 100 µM (inactive), the GI50 (MDA-N) was > 100 µM (inactive) and the GI50 (RXF 393) was > 100 µM (inactive). For the same compound, the GI50 (SW-620) was > 100 µM (inactive), the GI50 (M14) was > 100 µM (inactive) and the GI50 (K562) was > 100 µM (inactive). For the same compound, the GI50 (NCI/ADR-RES) was > 100 µM (inactive), the GI50 (MDA-MB-231) was > 100 µM (inactive) and the GI50 (SNB-75) was > 100 µM (inactive). The GI50 (BT-549) was > 100 µM (inactive), the GI50 (SR) was > 100 µM (inactive) and the GI50 (ACHN) was > 100 µM (inactive). For the same compound, the GI50 (NCI-H522) was > 100 µM (inactive), the GI50 (SK-OV-3) was > 100 µM (inactive) and the GI50 (HCT-15) was greater than 100 µM. The GI50 (OVCAR-8) was > 100 µM (inactive), the GI50 (NCI-H23) was > 100 µM (inactive) and the GI50 (SN12C) was > 100 µM (inactive). The GI50 (Malme-3M) was > 100 µM (inactive), the GI50 (SF-295) was > 100 µM (inactive) and the GI50 (SF-268) was > 100 µM (inactive). For the same compound, the GI50 (OVCAR-3) was > 100 µM (inactive), the GI50 (OVCAR-4) was > 100 µM (inactive) and the GI50 (HCT-116) was > 100 µM (inactive). The GI50 (UACC-257) was > 100 µM (inactive), the GI50 (Hs-578T) was > 100 µM (inactive) and the GI50 (NCI-H226) was > 100 µM (inactive). The GI50 (IGROV-1) was > 100 µM (inactive).

For `NC(=O)C(=CNC(=S)c1ccncc1)C(N)=O`, the GI50 (HT-29) was > 100 µM (inactive), the GI50 (EKVX) was > 100 µM (inactive) and the GI50 (TK-10) was > 100 µM (inactive). The GI50 (NCI-H460) was > 100 µM (inactive), the GI50 (HOP-62) was > 100 µM (inactive) and the GI50 (786-0) was > 100 µM (inactive). The GI50 (COLO 205) was > 100 µM (inactive), the GI50 (A549) was > 100 µM (inactive) and the GI50 (KM12) was > 100 µM (inactive). The GI50 (HOP-92) was > 100 µM (inactive), the GI50 (OVCAR-5) was > 100 µM (inactive) and the GI50 (MDA-MB-435) was > 100 µM (inactive). For the same compound, the GI50 (LOX IMVI) was > 100 µM (inactive), the GI50 (MCF7) was > 100 µM (inactive) and the GI50 (RPMI-8226) was > 100 µM (inactive). The GI50 (SNB-19) was > 100 µM (inactive), the GI50 (UACC-62) was > 100 µM (inactive) and the GI50 (SK-MEL-2) was > 100 µM (inactive). The GI50 (SF-539) was > 100 µM (inactive), the GI50 (CAKI-1) was > 100 µM (inactive) and the GI50 (DU-145) was > 100 µM (inactive). For the same compound, the GI50 (PC-3) was > 100 µM (inactive), the GI50 (CCRF-CEM) was > 100 µM (inactive) and the GI50 (T47D) was > 100 µM (inactive). For the same compound, the GI50 (UO-31) was > 100 µM (inactive), the GI50 (U-251) was > 100 µM (inactive) and the GI50 (MOLT-4) was > 100 µM (inactive). The GI50 (SK-MEL-5) was > 100 µM (inactive), the GI50 (MDA-N) was > 100 µM (inactive) and the GI50 (RXF 393) was > 100 µM (inactive). For the same compound, the GI50 (SW-620) was > 100 µM (inactive), the GI50 (M14) was > 100 µM (inactive) and the GI50 (K562) was > 100 µM (inactive). For the same compound, the GI50 (NCI/ADR-RES) was > 100 µM (inactive), the GI50 (MDA-MB-231) was > 100 µM (inactive) and the GI50 (BT-549) was > 100 µM (inactive). For the same compound, the GI50 (SR) was > 100 µM (inactive), the GI50 (ACHN) was > 100 µM (inactive) and the GI50 (NCI-H522) was > 100 µM (inactive). The GI50 (SK-OV-3) was > 100 µM (inactive), the GI50 (HCT-15) was greater than 100 µM and the GI50 (HCC 2998) was > 100 µM (inactive). For the same compound, the GI50 (OVCAR-8) was > 100 µM (inactive), the GI50 (NCI-H23) was > 100 µM (inactive) and the GI50 (SN12C) was > 100 µM (inactive). The GI50 (HL-60) was > 100 µM (inactive), the GI50 (SF-295) was > 100 µM (inactive) and the GI50 (SF-268) was > 100 µM (inactive). The GI50 (OVCAR-3) was > 100 µM (inactive), the GI50 (OVCAR-4) was > 100 µM (inactive) and the GI50 (HCT-116) was > 100 µM (inactive). The GI50 (UACC-257) was > 100 µM (inactive), the GI50 (Hs-578T) was > 100 µM (inactive) and the GI50 (NCI-H226) was > 100 µM (inactive). For the same compound, the GI50 (IGROV-1) was > 100 µM (inactive).

From ChEMBL document CHEMBL1201862, “PubChem BioAssay data set” (2004)
